Patent US10899750B2, “Methods and compositions of small molecule modulators of hepatocyte growth factor (scatter factor) activity” (ANGION BIOMEDICA CORP., priority 2008, dated 2021)

How the values were obtained:
HUVECs = experiment: Nitric oxide production in endothelial cells (DAF2-DA fluorescence); assay type: cell-based, human; settings: 24 hours incubation
Description: c. HGF and compounds of the invention stimulate nitric oxide production in endothelial cells. HUVECs are incubated with either vehicle, HGF/SF, instant compounds, or SNAP for 24 hours, loaded with the nitric oxide-sensitive fluorescence indicator DAF2-DA and imaged under a laser scanning confocal microscope.

MDCK cells = experiment: Anti-apoptotic activity in cultured cell lines (adriamycin-induced apoptosis); assay type: cell-based
Source text: a. HGF/SF and instant compounds have significant anti-apoptotic activity in cultured cell lines.

[1] = system: NIH-3T3 cells transfected with the gene for the c-met receptor; experiment: Protection from apoptosis in NIH-3T3 cells transfected with c-met receptor (MTT assay); assay type: cell-based
Source text: b. Protection from apoptosis in NIH-3T3 cells transfected with c-met receptor.

[2] = system: LX2 cells (an immortalized human hepatic stellate cell line); experiment: Antifibrotic activity in hepatic stellate cells; assay type: cell-based; settings: serum starved (activated) LX2 cells
Source text: a. Antifibrotic Activity in Hepatic Stellate Cells.

| Compound | Nitric oxide production (DAF2-DA fluorescence) (HUVECs) | Adriamycin-induced apoptosis (MDCK cells; MDCK cells) | Cell viability (MDCK cells; pretreatment, HUVEC and MDCK cell lines) | Protection from adriamycin-induced apoptosis (MTT assay) [1] | Collagen I mRNA expression [2] |
| --- | --- | --- | --- | --- | --- |
| CC(=O)N[C@@H](C(=O)O)C(C)(C)SN=O (racemic) [SNAP, reference compound] | significant increase in fluorescence | – | – | – | – |
| HGF/SF: pleiotropic growth factor; heparin-binding heterodimeric protein composed of a 62 kDa α chain and a 34 kDa β chain | significant increase in fluorescence | significantly block adriamycin-induced apoptosis | significantly improves the cell viability | protect the cells from adriamycin-induced apoptosis | decrease in collagen I mRNA expression |
